According to patent US12384787B2, “Fused heterocyclic compounds and their use as pest control agents” (PI INDUSTRIES LTD., priority 2019, dated 2025):

What follows are compounds tested on Plutella xylostella (assay: Plutella xylostella leaf dip method (cabbage leaves)). Details: foliar, second instar larvae, 72 h after release, dead and moribund combined, compared to untreated control, read-out: Percent mortality.
Format: in vivo
Description: The leaf dip method was used for testing, wherein the required quantity of the compounds were weighed and dissolved in a surfactant solution, kept on a Vortex at 2000 rpm with zirconia beads for 90 min for proper mixing and then diluted with 0.01% Triton-X solution to the desired test concentration. Cabbage leaves were dipped in the solution for 10 seconds, shade dried for 20 min and then transferred to bioassay trays. A single second instar larva was released into each bioassay tray cell and the tray was covered with a lid. The bio-assay trays were kept under laboratory conditions at a temperature of 25° C. and relative humidity of 70%. Observations on dead, moribund and living larvae were recorded at 72 h after the release. Percent mortality was calculated by combining dead and moribund larvae and comparing the result to the one of the untreated control.
In the case of `CCS(=O)(=O)c1cc2cc(C(F)(F)F)ccn2c1-c1nc2cc(C(F)(F)F)cnc2n1C` [Compound 5, 2-(2-(Ethylsulfonyl)-7-(trifluoromethyl)indolizin-3-yl)-3-methyl-6-(trifluoromethyl)-3H-imidazo[4,5-b]pyridine], the mortality at 300 ppm is reported as > 70%.
For `CCS(=O)(=O)c1cc2c(-c3cc(Cl)cc(Cl)c3)cccn2c1-c1nc2cc(C(F)(F)F)cnc2n1C` [Compound 6, 2-(8-(3,5-Dichlorophenyl)-2-(ethylsulfonyl)indolizin-3-yl)-3-methyl-6-(trifluoromethyl)-3H-imidazo[4,5-b]pyridine], the mortality at 300 ppm was > 70%.
`CCS(=O)(=O)c1nn2c(C)cc(C)nc2c1-c1nc2cc(C(F)(F)F)ncc2n1C` [Compound 12, 2-(2-(Ethylsulfonyl)-5,7-dimethylpyrazolo[1,5-a]pyrimidin-3-yl)-3-methyl-6-(trifluoromethyl)-3H-imidazo[4,5-c]pyridine] was tested, and the mortality at 300 ppm was > 70%.
`CCS(=O)(=O)c1nn2cccnc2c1-c1nc2cc(S(=O)(=O)C(F)(F)F)ccc2o1` [Compound 18, 2-(2-(Ethylsulfonyl)pyrazolo[1,5-a]pyrimidin-3-yl)-5-((trifluoromethyl)sulfonyl)benzo[d]oxazole] was tested, and the mortality at 300 ppm was > 70%.
For `CCSc1nn2c(-c3ccc(F)cc3)ccnc2c1-c1nc2cc(C(F)(F)F)ncc2n1C` [Compound 20, 2-(2-(Ethylthio)-7-(4-fluorophenyl)pyrazolo[1,5-a]pyrimidin-3-yl)-3-methyl-6-(trifluoromethyl)-3H-imidazo[4,5-c]pyridine], the mortality at 300 ppm was > 70%.
In the case of `CCSc1nn2c(-c3ccc(OC(F)(F)F)cc3)ccnc2c1-c1nc2cc(C(F)(F)F)cnc2n1C` [Compound 27, 2-(2-(Ethylthio)-7-(4-(trifluoromethoxy)phenyl)pyrazolo[1,5-a]pyrimidin-3-yl)-3-methyl-6-(trifluoromethyl)-3H-imidazo[4,5-b]pyridine], the mortality at 300 ppm is reported as > 70%.
For `CCS(=O)(=O)c1nn2c(-c3ccc(OC(F)(F)F)cc3)ccnc2c1-c1nc2cc(C(F)(F)F)cnc2n1C` [Compound 29, 2-(2-(Ethylsulfonyl)-7-(4-(trifluoromethoxy)phenyl)pyrazolo[1,5-a]pyrimidin-3-yl)-3-methyl-6-(trifluoromethyl)-3H-imidazo[4,5-b]pyridine], the mortality at 300 ppm was > 70%.
In the case of `CCS(=O)(=O)c1nn2c(-c3ccc(OC(F)(F)F)cc3)ccnc2c1-c1nc2cc(C(F)(F)F)ncc2n1C` [Compound 30, 2-(2-(Ethylsulfonyl)-7-(4-(trifluoromethoxy)phenyl)pyrazolo[1,5-a]pyrimidin-3-yl)-3-methyl-6-(trifluoromethyl)-3H-imidazo[4,5-c]pyridine], the mortality at 300 ppm is reported as > 70%.
`CCS(=O)(=O)c1nn2c(-c3ccc(F)cc3)ccnc2c1-c1nc2cc(S(=O)(=O)C(F)(F)F)ccc2o1` [Compound 34, 2-(2-(Ethylsulfonyl)-7-(4-fluorophenyl)pyrazolo[1,5-a]pyrimidin-3-yl)-5-((trifluoromethyl)sulfonyl)benzo[d]oxazole] was tested, and the mortality at 300 ppm was > 70%.
`CCSc1nn2c(-c3ccc(Cl)cc3)ccnc2c1-c1nc2cc(C(F)(F)F)ncc2n1C` [Compound 35, 2-(7-(4-Chlorophenyl)-2-(ethylthio)pyrazolo[1,5-a]pyrimidin-3-yl)-3-methyl-6-(trifluoromethyl)-3H-imidazo[4,5-c]pyridine] was tested, and the mortality at 300 ppm was > 70%.
For `CCS(=O)(=O)c1nn2c(-c3ccc(Cl)cc3)ccnc2c1-c1nc2cc(S(=O)(=O)C(F)(F)F)ccc2o1` [Compound 40, 2-(7-(4-Chlorophenyl)-2-(ethylsulfonyl)pyrazolo[1,5-a]pyrimidin-3-yl)-5-((trifluoromethyl)sulfonyl)benzo[d]oxazole], the mortality at 300 ppm was > 70%.
In the case of `CCS(=O)(=O)c1nn2c(-c3cc(Cl)cc(Cl)c3)ccnc2c1-c1nc2cc(S(=O)(=O)C(F)(F)F)ccc2o1` [Compound 43, 2-(7-(3,5-Dichlorophenyl)-2-(ethylsulfonyl)pyrazolo[1,5-a]pyrimidin-3-yl)-5-((trifluoromethyl)sulfonyl)benzo[d]oxazole], the mortality at 300 ppm is reported as > 70%.
`CCS(=O)(=O)c1nn2ccc(-c3ccccc3)nc2c1-c1nc2cc(C(F)(F)F)ncc2n1C` [Compound 46, 2-(2-(Ethylsulfonyl)-5-phenylpyrazolo[1,5-a]pyrimidin-3-yl)-3-methyl-6-(trifluoromethyl)-3H-imidazo[4,5-d]pyridine] was tested, and the mortality at 300 ppm was > 70%.
In the case of `CCSc1nn2cc(Cl)cnc2c1-c1nc2cc(C(F)(F)F)cnc2n1C` [Compound 48, 2-(6-Chloro-2-(ethylthio)pyrazolo[1,5-a]pyrimidin-3-yl)-3-methyl-6-(trifluoromethyl)-3H-imidazo[4,5-b]pyridine], the mortality at 300 ppm is reported as > 70%.
In the case of `CCS(=O)(=O)c1nn2ccc(-c3ccc(F)cc3)nc2c1-c1nc2cc(C(F)(F)F)cnc2n1C` [Compound 62, 2-(2-(Ethylsulfonyl)-5-(4-fluorophenyl)pyrazolo[1,5-a]pyrimidin-3-yl)-3-methyl-6-(trifluoromethyl)-3H-imidazo[4,5-b]pyridine], the mortality at 300 ppm is reported as > 70%.
`CCS(=O)(=O)c1nn2cc(-c3ccccc3)cnc2c1-c1nc2cc(C(F)(F)F)ncc2n1C` [Compound 66, 2-(2-(Ethylsulfonyl)-6-phenylpyrazolo[1,5-a]pyrimidin-3-yl)-3-methyl-6-(trifluoromethyl)-3H-imidazo[4,5-c]pyridine] was tested, and the mortality at 300 ppm was > 70%.
With `CCS(=O)(=O)c1nn2ccc(-c3cc(Cl)cc(Cl)c3)nc2c1-c1nc2cc(C(F)(F)F)cnc2n1C` [Compound 67, 2-(5-(3,5-Dichlorophenyl)-2-(ethylsulfonyl)pyrazolo[1,5-a]pyrimidin-3-yl)-3-methyl-6-(trifluoromethyl)-3H-imidazo[4,5-b]pyridine] the mortality at 300 ppm was > 70%.
For `CCS(=O)(=O)c1nn2ccc(-c3cc(Cl)cc(Cl)c3)nc2c1-c1nc2cc(C(F)(F)F)ncc2n1C` [Compound 69, 2-(5-(3,5-Dichlorophenyl)-2-(ethylsulfonyl)pyrazolo[1,5-a]pyrimidin-3-yl)-3-methyl-6-(trifluoromethyl)-3H-imidazo[4,5-c]pyridine], the mortality at 300 ppm was > 70%.
`CCSc1nn2cc(Br)cnc2c1-c1nc2cc(C(F)(F)F)cnc2n1C` [Compound 70, 2-(6-Bromo-2-(ethylthio)pyrazolo[1,5-a]pyrimidin-3-yl)-3-methyl-6-(trifluoromethyl)-3H-imidazo[4,5-b]pyridine] was tested, and the mortality at 300 ppm was > 70%.
With `CCS(=O)(=O)c1nn2cc(-c3ccc(Cl)cc3)cnc2c1-c1nc2cc(C(F)(F)F)ncc2n1C` [Compound 74, 2-(6-(4-Chlorophenyl)-2-(ethylsulfonyl)pyrazolo[1,5-a]pyrimidin-3-yl)-3-methyl-6-(trifluoromethyl)-3H-imidazo[4,5-c]pyridine] the mortality at 300 ppm was > 70%.
With `CCSc1nn2cc(-c3cc(Cl)cc(Cl)c3)cnc2c1-c1nc2cc(C(F)(F)F)ncc2n1C` [Compound 80, 2-(6-(3,5-Dichlorophenyl)-2-(ethylthio)pyrazolo[1,5-a]pyrimidin-3-yl)-3-methyl-6-(trifluoromethyl)-3H-imidazo[4,5-c]pyridine] the mortality at 300 ppm was > 70%.
`CCS(=O)(=O)c1nn2cc(-c3cc(Cl)cc(Cl)c3)cnc2c1-c1nc2cc(C(F)(F)F)ncc2n1C` [Compound 81, 2-(6-(3,5-Dichlorophenyl)-2-(ethylsulfonyl)pyrazolo[1,5-a]pyrimidin-3-yl)-3-methyl-6-(trifluoromethyl)-3H-imidazo[4,5-c]pyridine] was tested, and the mortality at 300 ppm was > 70%.
With `CCS(=O)(=O)c1nn2ccc(-c3ccc(Cl)cc3)nc2c1-c1nc2cc(C(F)(F)F)cnc2n1C` [Compound 88, 2-(5-(4-Chlorophenyl)-2-(ethylsulfonyl)pyrazolo[1,5-a]pyrimidin-3-yl)-3-methyl-6-(trifluoromethyl)-3H-imidazo[4,5-b]pyridine] the mortality at 300 ppm was > 70%.
In the case of `CCSc1nn2cc(-c3ccc(OC(F)(F)C(F)F)cc3)cnc2c1-c1nc2cc(C(F)(F)F)cnc2n1C` [Compound 95, 2-(2-(Ethylthio)-6-(4-(1,1,2,2-tetrafluoroethoxy)phenyl)pyrazolo[1,5-a]pyrimidin-3-yl)-3-methyl-6-(trifluoromethyl)-3H-imidazo[4,5-b]pyridine], the mortality at 300 ppm is reported as > 70%.
With `CCS(=O)(=O)c1nn2cc(-c3ccc(OC(F)(F)C(F)F)cc3)cnc2c1-c1nc2cc(C(F)(F)F)cnc2n1C` [Compound 96, 2-(2-(Ethylsulfonyl)-6-(4-(1,1,2,2-tetrafluoroethoxy)phenyl)pyrazolo[1,5-a]pyrimidin-3-yl)-3-methyl-6-(trifluoromethyl)-3H-imidazo[4,5-b]pyridine] the mortality at 300 ppm was > 70%.
`CCS(=O)(=O)c1nn2cc(-c3ccc(OC(F)(F)F)cc3)cnc2c1-c1nc2cc(C(F)(F)F)ncc2n1C` [Compound 100, 2-(2-(Ethylsulfonyl)-6-(4-(trifluoromethoxy)phenyl)pyrazolo[1,5-a]pyrimidin-3-yl)-3-methyl-6-(trifluoromethyl)-3H-imidazo[4,5-c]pyridine] was tested, and the mortality at 300 ppm was > 70%.
`CCS(=O)(=O)c1nn2c(-c3cccc(Cl)c3Cl)ccnc2c1-c1nc2cc(C(F)(F)F)cnc2n1C` [Compound 114, 2-(7-(2,3-Dichlorophenyl)-2-(ethylsulfonyl)pyrazolo[1,5-a]pyrimidin-3-yl)-3-methyl-6-(trifluoromethyl)-3H-imidazo[4,5-b]pyridine] was tested, and the mortality at 300 ppm was > 70%.
For `CCS(=O)(=O)c1nn2c(-c3ccccc3)ccnc2c1-c1nc2cc(C(F)(F)F)cnc2n1C` [Compound 115, 2-(2-(Ethylsulfonyl)-7-phenylpyrazolo[1,5-a]pyrimidin-3-yl)-3-methyl-6-(trifluoromethyl)-3H-imidazo[4,5-b]pyridine], the mortality at 300 ppm was > 70%.
In the case of `CCS(=O)(=O)c1nn2c(-c3cccc(F)c3)ccnc2c1-c1nc2cc(C(F)(F)F)cnc2n1C` [Compound 130, 2-(2-(Ethylsulfonyl)-7-(3-fluorophenyl)pyrazolo[1,5-a]pyrimidin-3-yl)-3-methyl-6-(trifluoromethyl)-3H-imidazo[4,5-b]pyridine], the mortality at 300 ppm is reported as > 70%.
